{"source": "patent US20160166578A1", "about": "“METHOD FOR TREATING TYPE I AND TYPE II DIABETES” (PRISM Phama Ltd., priority 2012, published 2016)", "key": {"[1]": {"tested_on": "Wnt signaling pathway", "test": "Reporter gene assay (SuperTOPFlash luciferase, STF reporter cell line)", "type": "cell-based", "details": "Homo sapiens; at a concentration of 1 μM; Hek-293 STF reporter cells, LiCl stimulation, 24 hours; read-out: inhibitory activity", "procedure": "Screening for inhibitory action of the Wnt signaling pathway was carried out according to the following procedure using an STF reporter cell line (human embryonic kidney cell line Hek-293 stably transfected with the firefly luciferase gene under the control of eight tandem repeats of the SuperTOPFlash reporter element; Cell 116:883-895, 2004).\nGrowth Medium: Dulbecco's Modified Eagle Medium (DMEM), 10% FBS, Pen-Strep, supplemented with 400 µg/ml G418 antibiotic to maintain selection of SuperTOPFlash driven luciferase gene.\nOn the day prior to assay, cells were split into a white opaque 96-well plate at 20,000 cells per well in 200 microliters of complete growth medium. The plate was incubated overnight at 37° C., 5% CO2 to allow the cells to attach to the surface.\nThe next day, the inhibitors were prepared to be tested in complete growth medium, without G418, at 2× the desired final concentration (all conditions are done in duplicate). The existing medium was carefully pipetted from each well using a multiple pipettor. 50 microliters of fresh growth medium (without G148) containing the inhibitor (Compound A) was added to each well. […]\nAfter 24 hours, 100 microliters of BrightGlo reagent (Promega, Madison, Wis.) was added to each well. […] The plate was read using a Packard TopCount (PerkinElmer, Inc.)."}, "[2]": {"test": "Blood glucose levels in human clinical trial (patients with cancer and type II diabetes)", "type": "in vivo", "details": "for blood glucose levels: 7 days continuous IV infusion, one week on and one week off", "procedure": "Patients with cancer and type II diabetes were enrolled in a clinical trial (Safety and Efficacy Study in Subjects With Advanced Solid). The efficacy of Compound A for the treatment of diabetes was investigated by measurement of the blood glucose level of the patients. Conditions of patients enrolled in this study are as follows:\n(Patient 101), with sigmoid colon cancer and diabetes. Compound A was administered at 40 mg/m^2/day, and Metformin Hydrochloride\n(Patient 1103), with colon cancer and diabetes. Compound A was administered at 905 mg/m^2/day, in addition patient was treated with pioglitazone hydrochloride (Actos) and Metformin Hydrochloride.\nCompound A administration was 7 days continuous IV infusion. The cycle of administration is one week on and one week off.\nIn addition to already prescribed drugs (pioglitazone hydrochloride or Metformin Hydrochloride) as basic treatment, Compound A with a defined dose for each patient was intravenously administrated for 7 continuous days followed by a 7-day rest period. This 14 days period with 7-day infusion period and 7-day rest period is defined as one cycle. Basic treatment for diabetes was continuously performed during this period. During the administration period (first, fifth and eighth day of each cycle) or after the administration, blood glucose levels were measured."}, "[3]": {"test": "Primate study in aged hyperglycemic monkeys (c-peptide, insulin, HbA1c)", "type": "in vivo, Macaca fascicularis", "details": "8 mg/Kg/Day continuous infusion i.p., 84 days", "procedure": "Animals: aged Macaca fascicularis (21 to 27 years old) monkeys that have hyperglycemia, N=3.\nAdministration: Compound A (8 mg/Kg/Day) administrated by continuous infusion by i.p. from day 152 to 236 (84 days). Biochemical tests: c-peptide, insulin, and HbA1c levels were measured every week.\nC-peptide, a byproduct of insulin production that is elevated in hyperglycemia, was measured using ELECSYS c-peptide assay (Roche Diagnostics, Hoffmann-La Roche Ltd.) with electrochemiluminescence assay (ECLIA) readout.\nInsulin levels were measured using the E test II IRI, EIA method (TOSOH Corp., Tokyo). Insulin levels are elevated in hyperglycemia.\nHbA1c or glycated hemoglobin (hemoglobin A1c) was measured to identify the average glycated hemoglobin, as a measure of plasma glucose concentration, over the previous months prior to the measurement. HbA1c levels are elevated in hyperglycemia. HbA1c was measured using the Nordia N HbA1c assay kit, enzyme method (Sekisui Medical Co., Ltd., Japan)."}}}
{"smiles": "C[C@H]1[C@H]2N(C(=O)CN(C)N2C(=O)NCc2ccccc2)[C@@H](Cc2ccc(OP(=O)(O)O)cc2)C(=O)N1Cc1cccc2cccnc12", "note": "[Compound A, 4-(((6S,9S,9aS)-1-(benzylcarbamoyl)-2,9-dimethyl-4,7-dioxo-8-(quinolin-8-ylmethyl)octahydro-1H-pyrazino[2,1-c][1,2,4]triazin-6-yl)methyl)phenyl dihydrogen phosphate]", "values": [{"measurement": "inhibition at 1 µM", "setting": "[1]", "value": "> 50", "unit": "%"}, {"measurement": "blood glucose levels", "setting": "[2]; Patient 101, 40 mg/m^2/day, with Metformin Hydrochloride, by the end of every cycle (FIG. 1)", "value": "blood glucose levels are reduced"}, {"measurement": "blood glucose levels", "setting": "[2]; Patient 1103, 905 mg/m^2/day, with pioglitazone hydrochloride and Metformin Hydrochloride, by the end of every cycle (FIG. 2)", "value": "blood glucose levels are reduced"}, {"measurement": "blood glucose level of patients with type II diabetes not adequately controlled by known drugs", "setting": "[2]; concomitant use with known drugs for type II diabetes", "value": "significantly decreased"}, {"measurement": "adverse effects of concomitant use", "setting": "[2]; patients with type II diabetes, concomitant with known drugs for diabetes", "value": "No adverse effects"}, {"measurement": "c-peptide levels", "setting": "[3]; FIG. 3", "value": "c-peptide levels fall over time"}, {"measurement": "insulin levels", "setting": "[3]; FIG. 4", "value": "insulin levels fall over time"}, {"measurement": "HbA1c levels (ratio of mmol HbA1c to mol hemoglobin)", "setting": "[3]; FIG. 5", "value": "HbA1c levels fall over time"}]}
